# According to article PMC11243685, “Synthesis and Enzymatic Evaluation of a Small Library of Substituted Phenylsulfonamido-Alkyl Sulfamates towards Carbonic Anhydrase II” (Molecules, 2024):
# Tested on: not given
# Assay: not given
# Settings: not given
row,Structure (SMILES),melting point [°C]
1,"O=S(=O)(NCCCCCCO)c1ccccc1 [5a, N-(6-Hydroxyhexyl)benzene Sulfonamide]",40 to 42
2,"O=S(=O)(NCCCCCCCCO)c1ccccc1 [7a, N-(8-Hydroxyoctyl)benzene Sulfonamide]",59 to 60
3,"O=S(=O)(NCCCCCCCCCO)c1ccccc1 [8a, N-(9-Hydroxynonyl)benzene Sulfonamide]",40 to 41
4,"O=S(=O)(NCCCCCCCCCCO)c1ccccc1 [9a, N-(10-Hydroxydecyl)benzene Sulfonamide]",67 to 69
5,"O=S(=O)(NCCCCCCCCCCCO)c1ccccc1 [10a, N-(11-Hydroxyundecyl)benzene Sulfonamide]",58 to 59
6,"O=S(=O)(NCCCCCCCCCCCCO)c1ccccc1 [11a, N-(12-Hydroxydodecyl)benzene Sulfonamide]",76 to 77
7,"Cc1ccc(S(=O)(=O)NCCO)cc1 [12a, N-(2-Hydroxyethyl)-4-methylbenzene Sulfonamide]",55 to 57
8,"Cc1ccc(S(=O)(=O)NCCCO)cc1 [13a, N-(3-Hydroxypropyl)-4-methylbenzene Sulfonamide]",55 to 57
9,"Cc1ccc(S(=O)(=O)NCCCCO)cc1 [14a, N-(4-Hydroxybutyl)-4-methylbenzene Sulfonamide]",50 to 51
10,"Cc1ccc(S(=O)(=O)NCCCCCCO)cc1 [16a, N-(6-Hydroxyhexyl)-4-methylbenzene Sulfonamide]",49 to 51
11,"Cc1ccc(S(=O)(=O)NCCCCCCCCO)cc1 [18a, N-(8-Hydroxyoctyl)-4-methylbenzene Sulfonamide]",87 to 88
12,"Cc1ccccc1S(=O)(=O)NCCO [26a, N-(2-Hydroxyethyl)-2-methylbenzene Sulfonamide]",73 to 74
13,"CC(C)(C)c1ccc(S(=O)(=O)NCCO)cc1 [49a, 4-(tert-Butyl)-N-(2-hydroxyethyl)benzene Sulfonamide]",75 to 77
14,"CC(C)(C)c1ccc(S(=O)(=O)NCCCCCCCO)cc1 [54a, 4-(tert-Butyl)-N-(7-hydroxyheptyl)benzene Sulfonamide]",51 to 52
15,"CC(C)(C)c1ccc(S(=O)(=O)NCCCCCCCCCO)cc1 [56a, 4-(tert-Butyl)-N-(9-hydroxynonyl)benzene Sulfonamide]",69 to 70
16,"CC(C)(C)c1ccc(S(=O)(=O)NCCCCCCCCCCO)cc1 [57a, 4-(tert-Butyl)-N-(10-hydroxydecyl)benzene Sulfonamide]",75 to 76
17,"O=S(=O)(NCCCCCCO)c1ccc(C2CCCCC2)cc1 [72a, 4-Cyclohexyl-N-(6-hydroxyhexyl)benzene Sulfonamide]",87 to 88
18,"O=S(=O)(NCCCCCCCCO)c1ccc(C23CC4CC(CC(C4)C2)C3)cc1 [77a, 4-(Adamantan-1-yl)-N-(8-hydroxyoctyl)benzene Sulfonamide]",101 to 102
19,"O=S(=O)(NCCCCCCCCCO)c1ccc(C23CC4CC(CC(C4)C2)C3)cc1 [78a, 4-(Adamantan-1-yl)-N-(9-hydroxynonyl)benzene Sulfonamide]",84 to 85

# The remaining lines, values ahead:
row,melting point [°C],Structure (SMILES)
1,78 to 79,"O=S(=O)(NCCO)c1ccccc1 [1a, N-(2-Hydroxyethyl)benzene Sulfonamide]"
2,60 to 61,"Cc1ccc(S(=O)(=O)NCCCCCO)cc1 [15a, N-(5-Hydroxypentyl)-4-methylbenzene Sulfonamide]"
3,58 to 60,"CC(C)(C)c1ccc(S(=O)(=O)NCCCCO)cc1 [51a, 4-(tert-Butyl)-N-(4-hydroxybutyl)benzene Sulfonamide]"
4,53 to 54,"CC(C)(C)c1ccc(S(=O)(=O)NCCCCCO)cc1 [52a, 4-(tert-Butyl)-N-(5-hydroxypentyl)benzene Sulfonamide]"
5,53 to 54,"CC(C)(C)c1ccc(S(=O)(=O)NCCCCCCO)cc1 [53a, 4-(tert-Butyl)-N-(6-hydroxyhexyl)benzene Sulfonamide]"
6,69 to 71,"CC(C)(C)c1ccc(S(=O)(=O)NCCCCCCCCO)cc1 [55a, 4-(tert-Butyl)-N-(8-hydroxyoctyl)benzene Sulfonamide]"

# Molecular target: T1, bovine carbonic anhydrase II (Bos taurus, UniProt P00921)
# T1 construct: carbonic anhydrase II (bCAII, ≥3000 W-A units/mg from bovine erythrocytes) from Sigma; purchased Sigma (Taufkirchen, Germany); host or cells: isolated from bovine erythrocytes
# Assay: Enzymatic assay of bCA II inhibition, absorbance at 415 nm;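 further: enzyme is carbonic anhydrase II isolated from bovine erythrocytes, with its activity followed photometrically at 415 nm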
# Assay type: biochemical
# Settings: CA II; from Lineweaver–Burk, Dixon and Cornish Bowden plots; read-out: Inhibition constant Ki
# Experimental: The enzymatic assays have been performed with carbonic anhydrase II (bCAII, ≥3000 W-A units/mg from bovine erythrocytes) from Sigma (Taufkirchen, Germany) using a BMG Labtech Spectrostar Omega apparatus (BMG Labtech, Ortenberg, Germany) measuring λ = 415 nm. Conditions have been described previously [72]. Ki and Ki′ values were determined from Lineweaver–Burk, Dixon and Cornish Bowden plots, respectively.
# T1 sequence (P00921 whole entry): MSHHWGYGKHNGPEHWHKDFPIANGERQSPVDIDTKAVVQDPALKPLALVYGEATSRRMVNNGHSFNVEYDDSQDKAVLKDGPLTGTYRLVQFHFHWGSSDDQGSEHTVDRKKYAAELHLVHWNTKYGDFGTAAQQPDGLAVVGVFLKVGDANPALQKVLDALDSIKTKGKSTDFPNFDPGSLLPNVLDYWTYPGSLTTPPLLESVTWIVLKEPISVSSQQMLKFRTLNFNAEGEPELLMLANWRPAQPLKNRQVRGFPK
row,Ki [µM],Structure (SMILES)
1,1.58 ± 0.02,"Cc1ccccc1S(=O)(=O)NCCCCCCOS(N)(=O)=O [30b, 6-[(2-Methylphenyl)sulfonamido]hexyl Sulfamate]"
2,1.64 ± 0.03,"CC(C)c1cccc(S(=O)(=O)NCCOS(N)(=O)=O)c1 [40b, 2-[(3-Isopropylphenyl)sulfonamido]ethyl Sulfamate]"

# Same assay, conditions: bCA II; 1 μM concentration of the inhibitor; triplicate with three technical replicas
row,Structure (SMILES),inhibition at 1 µM [%]
1,"NS(=O)(=O)OCCNS(=O)(=O)c1ccccc1 [1b, 2-(Phenylsulfonamido]ethyl Sulfamate]",59.2 ± 0.8
2,"NS(=O)(=O)OCCCCNS(=O)(=O)c1ccccc1 [3b, 4-(Phenylsulfonamido]butyl Sulfamate]",32.2 ± 0.3
3,"Cc1ccccc1S(=O)(=O)NCCCCOS(N)(=O)=O [28b, 4-[(2-Methylphenyl)sulfonamido]butyl Sulfamate]",37.9 ± 0.7
4,"Cc1ccccc1S(=O)(=O)NCCCCCOS(N)(=O)=O [29b, 5-[(2-Methylphenyl)sulfonamido]pentyl Sulfamate]",57.2 ± 0.7
5,"Cc1ccccc1S(=O)(=O)NCCCCCCOS(N)(=O)=O [30b, 6-[(2-Methylphenyl)sulfonamido]hexyl Sulfamate]",68.1 ± 0.3
6,"Cc1ccccc1S(=O)(=O)NCCCCCCCOS(N)(=O)=O [31b, 7-[(2-Methylphenyl)sulfonamido]heptyl Sulfamate]",55.6 ± 0.7
7,"Cc1ccccc1S(=O)(=O)NCCCCCCCCOS(N)(=O)=O [32b, 8-[(2-Methylphenyl)sulfonamido]octyl Sulfamate]",56.2 ± 0.8
8,"CC(C)c1cccc(S(=O)(=O)NCCCOS(N)(=O)=O)c1 [41b, 3-[(3-Isopropylphenyl)sulfonamido]propyl Sulfamate]",50.1 ± 0.9
9,"CC(C)c1cccc(S(=O)(=O)NCCCCCOS(N)(=O)=O)c1 [43b, 5-[(3-Isopropylphenyl)sulfonamido]pentyl Sulfamate]",44.4 ± 0.3
10,"CC(C)c1cccc(S(=O)(=O)NCCCCCCCOS(N)(=O)=O)c1 [45b, 7-[(3-Isopropylphenyl)sulfonamido]heptyl Sulfamate]",37 ± 0.3
11,"CC(C)c1ccccc1S(=O)(=O)NCCCCCCCOS(N)(=O)=O [47b, 7-[(2-Isopropylphenyl)sulfonamido]heptyl Sulfamate]",38.4 ± 0.2
12,"CC(C)c1ccccc1S(=O)(=O)NCCCCCCCCOS(N)(=O)=O [48b, 8-[(2-Isopropylphenyl)sulfonamido]octyl Sulfamate]",34.2 ± 0.7
13,"CC(C)(C)c1cccc(S(=O)(=O)NCCOS(N)(=O)=O)c1 [58b, 2-[(3-(tert-Butyl)phenyl)sulfonamido]ethyl Sulfamate]",54 ± 0.9
14,"CC(C)(C)c1cccc(S(=O)(=O)NCCCCOS(N)(=O)=O)c1 [60b, 4-[(3-(tert-Butyl)phenyl)sulfonamido]butyl Sulfamate]",43.3 ± 0.6
15,"CC(C)(C)c1cccc(S(=O)(=O)NCCCCCCCOS(N)(=O)=O)c1 [63b, 7-[(3-(tert-Butyl)phenyl)sulfonamido]heptyl Sulfamate]",33.3 ± 0.3
16,"CC(C)(C)c1ccccc1S(=O)(=O)NCCCCCOS(N)(=O)=O [65b, 5-[(2-(tert-Butyl)phenyl)sulfonamido]pentyl Sulfamate]",56.2 ± 0.8
17,"CC(C)(C)c1ccccc1S(=O)(=O)NCCCCCCCOS(N)(=O)=O [67b, 7-[(2-(tert-Butyl)phenyl)sulfonamido]heptyl Sulfamate]",27.5 ± 0.3
18,"NS(=O)(=O)OCCNS(=O)(=O)c1ccc(C2CCCCC2)cc1 [68b, 2-[(4-Cyclohexylphenyl)sulfonamido]ethyl Sulfamate]",52.1 ± 1.2
19,"NS(=O)(=O)OCCCCCCCCNS(=O)(=O)c1ccc(C2CCCCC2)cc1 [74b, 8-[(4-Cyclohexylphenyl)sulfonamido]octyl Sulfamate]",14.2 ± 1.1
20,"NS(=O)(=O)OCCCCCCCCCCNS(=O)(=O)c1ccc(C2CCCCC2)cc1 [76b, 10-[(4-Cyclohexylphenyl)sulfonamido]decyl Sulfamate]",19.7 ± 1.6

# Results, then the compound that gave them:
row,inhibition at 1 µM [%],Structure (SMILES)
1,51.8 ± 0.7,"NS(=O)(=O)OCCCCCNS(=O)(=O)c1ccccc1 [4b, 5-(Phenylsulfonamido]pentyl Sulfamate]"
2,63.7 ± 0.1,"CC(C)c1cccc(S(=O)(=O)NCCOS(N)(=O)=O)c1 [40b, 2-[(3-Isopropylphenyl)sulfonamido]ethyl Sulfamate]"
3,35.3 ± 0.5,"CC(C)c1cccc(S(=O)(=O)NCCCCOS(N)(=O)=O)c1 [42b, 4-[(3-Isopropylphenyl)sulfonamido]butyl Sulfamate]"
4,45.5 ± 0.7,"CC(C)c1cccc(S(=O)(=O)NCCCCCCOS(N)(=O)=O)c1 [44b, 6-[(3-Isopropylphenyl)sulfonamido]hexyl Sulfamate]"
5,29.5 ± 0.9,"CC(C)c1cccc(S(=O)(=O)NCCCCCCCCOS(N)(=O)=O)c1 [46b, 8-[(3-Isopropylphenyl)sulfonamido]octyl Sulfamate]"
6,53.9 ± 0.3,"CC(C)(C)c1cccc(S(=O)(=O)NCCCOS(N)(=O)=O)c1 [59b, 3-[(3-(tert-Butyl)phenyl)sulfonamido]propyl Sulfamate]"
7,39.2 ± 0.1,"CC(C)(C)c1cccc(S(=O)(=O)NCCCCCOS(N)(=O)=O)c1 [61b, 5-[(3-(tert-Butyl)phenyl)sulfonamido]pentyl Sulfamate]"
8,41.7 ± 0.8,"CC(C)(C)c1cccc(S(=O)(=O)NCCCCCCOS(N)(=O)=O)c1 [62b, 6-[(3-(tert-Butyl)phenyl)sulfonamido]hexyl Sulfamate]"
9,34.5 ± 0.4,"CC(C)(C)c1ccccc1S(=O)(=O)NCCCCCCOS(N)(=O)=O [66b, 6-[(2-(tert-Butyl)phenyl)sulfonamido]hexyl Sulfamate]"
10,34.7 ± 2.5,"NS(=O)(=O)OCCCCNS(=O)(=O)c1ccc(C2CCCCC2)cc1 [70b, 4-[(4-Cyclohexylphenyl)sulfonamido]butyl Sulfamate]"
11,18.6 ± 1,"NS(=O)(=O)OCCCCCNS(=O)(=O)c1ccc(C2CCCCC2)cc1 [71b, 5-[(4-Cyclohexylphenyl)sulfonamido]pentyl Sulfamate]"
12,14.8 ± 0.4,"NS(=O)(=O)OCCCCCCCNS(=O)(=O)c1ccc(C2CCCCC2)cc1 [73b, 7-[(4-Cyclohexylphenyl)sulfonamido]heptyl Sulfamate]"
